Experimental data taken from ChEMBL document CHEMBL4184240, “Potent human glutaminyl cyclase inhibitors as potential anti-Alzheimer's agents: Structure-activity relationship study of Arg-mimetic region” (Bioorg Med Chem, 2018).
The source made the active and inactive calls. The calls are words filed in the database; no cut-off is given here.

Key:
[1] = Permeability of the compound at pH 7.4 after 30 mins by PAMPA; assay type: ADME; details: pH 7.4, 0.5 h
[2] = Cytotoxicity against mouse HT22 cells assessed as cell viability at 10 uM relative to control; assay type: cell-based, HT-22; details: read-out: Activity
Mus musculus [3] = species on record: Mus musculus; details: ICR, 25 mg/kg
Description: (§1) Antialzheimer activity in human amyloid beta (3 to 40) induced acute ICR mouse Alzheimer's disease mouse model assessed as inhibition of amyloid beta (N3pE to 40) formation in brain at 25 mg/kg, icv administered via deep cortical/hippocampal tissue measured next day by sandwich ELISA relative to control

hERG (KCNH2) = hERG (KCNH2) (Homo sapiens, UniProt Q12809); experiment: Inhibition of human ERG at 10 uM relative to control
Chain of hERG (KCNH2) (Q12809 whole entry): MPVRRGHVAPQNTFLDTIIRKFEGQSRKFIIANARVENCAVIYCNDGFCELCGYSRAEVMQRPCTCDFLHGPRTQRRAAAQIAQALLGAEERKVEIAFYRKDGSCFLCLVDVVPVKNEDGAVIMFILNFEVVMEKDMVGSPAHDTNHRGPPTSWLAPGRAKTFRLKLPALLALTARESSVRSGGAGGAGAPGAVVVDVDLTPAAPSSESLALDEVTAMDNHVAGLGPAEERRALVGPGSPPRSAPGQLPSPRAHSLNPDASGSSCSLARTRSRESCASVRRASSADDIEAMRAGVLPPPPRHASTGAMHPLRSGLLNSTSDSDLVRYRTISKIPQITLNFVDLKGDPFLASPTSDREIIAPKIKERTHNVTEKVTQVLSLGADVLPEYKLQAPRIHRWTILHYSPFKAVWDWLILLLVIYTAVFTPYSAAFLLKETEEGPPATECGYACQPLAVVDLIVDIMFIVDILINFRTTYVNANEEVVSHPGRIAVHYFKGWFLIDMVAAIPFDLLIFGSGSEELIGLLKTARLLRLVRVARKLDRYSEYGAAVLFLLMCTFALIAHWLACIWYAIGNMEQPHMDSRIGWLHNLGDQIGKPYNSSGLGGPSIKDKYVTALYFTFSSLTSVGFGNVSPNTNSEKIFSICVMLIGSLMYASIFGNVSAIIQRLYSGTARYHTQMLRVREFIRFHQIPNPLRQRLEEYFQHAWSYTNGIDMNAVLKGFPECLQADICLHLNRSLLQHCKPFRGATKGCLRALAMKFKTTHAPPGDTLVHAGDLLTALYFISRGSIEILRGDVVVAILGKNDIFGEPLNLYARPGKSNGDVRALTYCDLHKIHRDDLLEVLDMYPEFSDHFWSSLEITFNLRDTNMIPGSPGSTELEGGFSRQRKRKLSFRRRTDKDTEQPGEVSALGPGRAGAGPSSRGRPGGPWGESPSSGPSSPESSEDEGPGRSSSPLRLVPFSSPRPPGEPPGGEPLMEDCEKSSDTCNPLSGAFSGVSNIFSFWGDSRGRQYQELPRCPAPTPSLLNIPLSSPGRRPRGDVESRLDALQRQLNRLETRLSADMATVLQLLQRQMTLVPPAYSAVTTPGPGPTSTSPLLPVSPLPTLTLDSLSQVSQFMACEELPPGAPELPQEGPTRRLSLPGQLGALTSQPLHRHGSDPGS

Mus musculus [4] = species on record: Mus musculus; experiment: animal or person; details: ICR, central, read-out: INH
Description: as §1

SMILES	log(permeability) [1]	viability at 10 µM [2] [%]	inhibition (Mus musculus [3])	inhibition at 10 µM (hERG (KCNH2)) [%]	inhibition in vivo at 25 mg/kg (Mus musculus [4]) [%]
COc1cc(NC(=S)NCCCn2cncc2C)ccc1OCCCCN1CCN(CCO)CC1	-8.7	100	–	–	–
COc1cc(NC(=S)NCCCn2cncc2C)ccc1OCC(=O)NC1CCN(CCN)CC1	-6.4	100	inactive	17.8	–
COc1cc(NC(=S)NCCCn2cncc2C)ccc1OCc1ccc(C2CCNCC2)cc1	-5.8	100	–	40.1	30
COc1cc(NC(=S)NCCCn2cncc2C)ccc1OCCN1CCN(CCOCCN)CC1	–	51.1	–	–	–
COc1cc(NC(=S)NCCCn2cncc2C)ccc1OCC(=O)N1CCN(CCN)CC1	-10	100	inactive	14	–
COc1cc(NC(=S)NCCCn2cncc2C)ccc1OCCCCN1CCN(CCN)CC1	-10	100	inactive	21.1	–
COc1cc(NC(=S)NCCCn2cncc2C)ccc1OCCCN1CCN(CCN)CC1	-10	100	inactive	28.9	–
COc1cc(NC(=S)NCCCn2cncc2C)ccc1Oc1ccc(N2CCNCC2)cc1	-5.6	100	inactive	39.7	–
COc1cc(NC(=S)NCCCn2cncc2C)ccc1OCCN1CCNCC1C (stereo not given)	-5.8	100	–	33.4	3.01
COc1cc(NC(=S)NCCCn2cncc2C)ccc1OCCCCc1ccnc(NCCO)c1	-10	100	inactive	44.4	–
COc1cc(NC(=S)NCCCn2cncc2C)ccc1OCCN1CCN(CCN)CC1	-5.7	100	–	2.5	5.43
COc1cc(NC(=S)NCCCn2cncc2C)ccc1OCCCC(=O)N1CCNCC1	-5.7	100	–	1.9	8.07
COc1cc(NC(=S)NCCCn2cncc2C)ccc1OCCCCc1ccnc(NCCN)c1	-10	100	inactive	31.5	–
COc1cc(NC(=S)NCCCn2cncc2C)ccc1OCCN1CCN(CCO)CC1	-6	100	inactive	9.7	–
COc1cc(NC(=S)NCCCn2cncc2C)ccc1Oc1ccc(C2CCNCC2)cc1	-5.6	100	inactive	72.8	–
COc1cc(NC(=S)NCCCn2cncc2C)ccc1OCCC(=O)NC1CCNCC1	-5.6	100	–	5	13.5
COc1cc(NC(=S)NCCCn2cncc2C)ccc1OCCC1CCN(CCO)CC1	-6.7	100	–	8.2	0.19
COc1cc(NC(=S)NCCCn2cncc2C)ccc1Oc1ccc(C2=CCNCC2)cc1	-4.9	100	–	52.8	16.1
COc1cc(NC(=S)NCCCn2cncc2C)ccc1OCCN1CC(C)NC(C)C1 (stereo not given)	-5.3	100	inactive	2.5	–
COc1cc(NC(=S)NCCCn2cncc2C)ccc1OCCC(=O)N1CCNCC1	-5.7	100	–	1.7	18.7
